target: IGF-1R (Homo sapiens (Human), UniProt P08069); assay: Example B-1: IGF-1R Assay (PC3 cells, IGF1 stimulation, AlphaLISA); assay type: cell-based; settings: 200 ng/mL IGF1 stimulation, read-out: Biological Activity against IGF-1R IC50
Procedure, shortened: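 Readout is AlphaLISA signal from lysed PC3 cells, expressed as % inhibition versus vehicle and EC80 controls and banded by IC50. Before lysis, the cells were starved of serum for 2 h, exposed to 3× serially diluted compound for 2 h, and stimulated for 30 min with 200 ng/mL IGF1 (final).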

IGF-1R, sequence (P08069 31-1367): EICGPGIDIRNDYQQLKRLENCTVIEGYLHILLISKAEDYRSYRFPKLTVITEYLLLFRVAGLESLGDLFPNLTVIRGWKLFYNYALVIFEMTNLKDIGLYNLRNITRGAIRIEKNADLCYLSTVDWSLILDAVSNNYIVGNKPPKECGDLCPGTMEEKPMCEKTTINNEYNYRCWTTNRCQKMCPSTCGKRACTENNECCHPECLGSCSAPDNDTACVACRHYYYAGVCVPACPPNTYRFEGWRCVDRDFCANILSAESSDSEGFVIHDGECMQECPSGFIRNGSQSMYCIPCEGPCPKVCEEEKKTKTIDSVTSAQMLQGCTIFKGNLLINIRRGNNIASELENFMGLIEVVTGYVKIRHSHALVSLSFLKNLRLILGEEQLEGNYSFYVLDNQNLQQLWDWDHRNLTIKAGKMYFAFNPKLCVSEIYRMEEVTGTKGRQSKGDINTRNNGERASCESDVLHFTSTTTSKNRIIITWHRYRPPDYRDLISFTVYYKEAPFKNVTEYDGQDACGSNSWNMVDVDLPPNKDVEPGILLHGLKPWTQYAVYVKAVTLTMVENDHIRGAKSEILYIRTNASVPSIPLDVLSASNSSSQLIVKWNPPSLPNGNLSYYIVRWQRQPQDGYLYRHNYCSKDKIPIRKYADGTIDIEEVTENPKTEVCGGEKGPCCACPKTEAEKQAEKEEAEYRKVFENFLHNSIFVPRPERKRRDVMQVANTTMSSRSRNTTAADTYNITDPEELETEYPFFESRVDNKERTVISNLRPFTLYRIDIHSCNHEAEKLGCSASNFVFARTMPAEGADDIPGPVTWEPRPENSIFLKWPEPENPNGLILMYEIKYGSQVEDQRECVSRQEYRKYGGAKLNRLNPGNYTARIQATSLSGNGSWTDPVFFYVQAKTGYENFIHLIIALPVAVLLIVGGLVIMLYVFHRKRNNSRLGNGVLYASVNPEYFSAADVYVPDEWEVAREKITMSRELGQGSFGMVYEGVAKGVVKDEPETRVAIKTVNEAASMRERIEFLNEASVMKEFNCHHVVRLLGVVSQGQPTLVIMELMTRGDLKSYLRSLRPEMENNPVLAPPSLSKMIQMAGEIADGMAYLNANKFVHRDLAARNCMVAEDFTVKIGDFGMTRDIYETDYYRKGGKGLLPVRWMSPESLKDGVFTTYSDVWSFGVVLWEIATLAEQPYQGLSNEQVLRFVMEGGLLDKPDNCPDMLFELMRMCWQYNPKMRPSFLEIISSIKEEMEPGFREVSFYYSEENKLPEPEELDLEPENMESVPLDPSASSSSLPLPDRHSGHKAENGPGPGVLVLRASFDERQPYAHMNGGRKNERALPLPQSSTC

Row | Compound | IC50 [nM]
1 | COc1cc(Nc2nccc(Nc3cnc4c(c3)OCC(C)(C)O4)n2)ccc1O[C@H]1C[C@@H](N(C)C)C1 [Compound 268, 4-(3,3-dimethyl-2,3-dihydro-1,4-dioxa-5-aza-7-naphthylamino)-2-{3-methoxy-4-[(1s,3s)-3-(dimethylamino)cyclobutoxy]phenylamino}pyrimidine] | ≤ 500
2 | COc1cc(Nc2nccc(Nc3cnc4ncc(F)cc4c3)n2)ccc1O[C@H]1C[C@@H](N(C)C)C1 [Compound 86, 4-(6-fluoro-1,8-diaza-3-naphthylamino)-2-{3-methoxy-4-[(1s,3s)-3-(dimethylamino)cyclobutoxy]phenylamino}pyrimidine] | ≤ 500
3 | COc1cc(Nc2ncc(F)c(Nc3cc4ccccc4nc3C(N)=O)n2)cnc1O[C@H]1C[C@@H](N(C)C)C1 [Compound 255, 3-(5-fluoro-2-{5-methoxy-6-[(1s,3s)-3-(dimethylamino)cyclobutoxy]-3-pyridylamino}-4-pyrimidinylamino)-2-quinolinecarboxamide] | ≤ 500
4 | COc1cc(Nc2nccc(Nc3cnc4cc(Cl)cnc4c3)n2)ccc1O[C@H]1C[C@@H](N(C)C)C1 [Compound 278, 4-(7-chloro-1,5-diaza-3-naphthylamino)-2-{3-methoxy-4-[(1s,3s)-3-(dimethylamino)cyclobutoxy]phenylamino}pyrimidine] | ≤ 500
5 | COc1cc(Nc2nccc(Nc3cnc4ccc(Cl)nc4c3)n2)ccc1O[C@H]1C[C@H](N(C)C)C1 [Compound 285, 4-(6-chloro-1,5-diaza-3-naphthylamino)-2-{3-methoxy-4-[(1r,3r)-3-(dimethylamino)cyclobutoxy]phenylamino}pyrimidine] | ≤ 500
6 | Clc1ccc2ncc(Nc3ccnc(Nc4ccc(O[C@H]5CC[C@@H](N6CCOCC6)CC5)cc4)n3)cc2c1 [Compound 311, 4-(6-chloro-3-quinolylamino)-2-{p-[(1s,4s)-4-morpholinocyclohexyloxy]phenylamino}pyrimidine] | ≤ 500
7 | COc1cc(Nc2nccc(Nc3cnc4ccc(O)cc4c3)n2)ccc1O[C@H]1C[C@H](N(C)C)C1 [Compound 330, 3-(2-{3-methoxy-4-[(1r,3r)-3-(dimethylamino)cyclobutoxy]phenylamino}-4-pyrimidinylamino)-6-quinolinol] | ≤ 500
8 | COc1cc(Nc2nccc(Nc3ccc4ncc(Br)cc4n3)n2)ccc1O[C@H]1C[C@@H](N(C)C)C1 [Compound 314, 4-(7-bromo-1,5-diaza-2-naphthylamino)-2-{3-methoxy-4-[(1s,3s)-3-(dimethylamino)cyclobutoxy]phenylamino}pyrimidine] | > 10000
9 | COc1ccc2cc(Nc3ccnc(Nc4ccc(N5CCN(C)CC5)cc4OC)n3)cnc2c1 [Compound 463, 2-[2-methoxy-4-(4-methyl-1-piperazinyl)phenylamino]-4-(7-methoxy-3-quinolylamino)pyrimidine] | ≤ 500
10 | COc1cc(Nc2nccc(Nc3ccc4c(n3)CC3CCC4N3C)n2)ccc1OCCCN1CCCCC1 (centres unmarked) [Compound 4, 2-[3-methoxy-4-(3-piperidinopropoxy)phenylamino]-4-(12-methyl-6,12-diazatricyclo[7.2.1.0^2,7]dodeca-2,4,6-trien-5-ylamino)pyrimidine] | 2000 to 10000
11 | COc1cc(Nc2nccc(Nc3cc4cccc(F)c4[nH]c3=O)n2)cnc1O[C@H]1CCN(C)C1 [Compound 166, 3-(2-{6-[(S)-1-methyl-3-pyrrolidinyloxy]-5-methoxy-3-pyridylamino}-4-pyrimidinylamino)-8-fluoro-1,2-dihydro-2-quinolinone] | 500 to 2000
12 | COc1cc(Nc2nccc(Nc3ccc4c(OC)cccc4c3)n2)ccc1OCCCN1CCCCC1 [Compound 453, 4-(5-methoxy-2-naphthylamino)-2-[3-methoxy-4-(3-piperidinopropoxy)phenylamino] pyrimidine] | ≤ 500
13 | COc1ccc2cc(Nc3ccnc(Nc4ccc(O[C@H]5C[C@H](N6CCCCC6)C5)cc4)n3)cnc2c1 [Compound 354, 4-(7-methoxy-3-quinolylamino)-2-{p-[(1r,3r)-3-piperidinocyclobutoxy]phenylamino}pyrimidine] | 2000 to 10000
14 | COc1ccc2cc(Nc3ccnc(Nc4ccc(O[C@H]5C[C@@H](N6CCOCC6)C5)cc4)n3)cnc2c1 [Compound 352, 4-(7-methoxy-3-quinolylamino)-2-{p-[(1s,3s)-3-morpholinocyclobutoxy]phenylamino}pyrimidine] | 2000 to 10000
15 | COc1cc(Nc2nccc(Nc3cnc4ccc(C)cc4c3)n2)ccc1OCCCN1CCCCC1 [Compound 429, 2-[3-methoxy-4-(3-piperidinopropoxy)phenylamino]-4-(6-methyl-3-quinolylamino)pyrimidine] | ≤ 500
16 | O=S1(=O)CCN(CCCOc2ccc(Nc3nccc(Nc4cnc5c(c4)C4CCC5C4)n3)cc2)CC1 (centres unmarked) [Compound 371, 4-[3-(p-{4-(3-azatricyclo[6.2.1.0^2,7]undeca-2,4,6-trien-5-ylamino)-2-pyrimidinylamino}phenoxy)propyl]-1λ^6,4-thiazinane-1,1-dione] | ≤ 500

Row | Compound | IC50 [nM]
17 | COc1cc(Nc2nccc(Nc3cnc4c(Cl)cccc4c3)n2)ccc1O[C@H]1CC[C@@H](N(C)C)CC1 [Compound 332, 4-(8-chloro-3-quinolylamino)-2-{3-methoxy-4-[(1s,4s)-4-(dimethylamino)cyclohexyloxy]phenylamino}pyrimidine] | ≤ 500
18 | CN(C)[C@H]1C[C@H](Oc2ccc(Nc3nccc(Nc4cnc5ccccc5c4)n3)cc2Br)C1 [Compound 34, 2-{3-bromo-4-[(1r,3r)-3-(dimethylamino)cyclobutoxy]phenylamino}-4-(3-quinolylamino)pyrimidine] | ≤ 500
19 | COc1cc(Nc2nccc(Nc3cnc4c(c3)CCCC4)n2)ccc1O[C@H]1C[C@@H](N(C)C)C1 [Compound 364, 2-{3-methoxy-4-[(1s,3s)-3-(dimethylamino)cyclobutoxy]phenylamino}-4-(5,6,7,8-tetrahydro-3-quinolylamino)pyrimidine] | ≤ 500
20 | COc1cc(Nc2nccc(Nc3cnc4c(c3)CN(C)CC4)n2)ccc1OCCCN1CCCCC1 [Compound 379, 2-[3-methoxy-4-(3-piperidinopropoxy)phenylamino]-4-(6-methyl-5,6,7,8-tetrahydro-1,6-diaza-3-naphthylamino)pyrimidine] | 2000 to 10000
21 | COc1cc(Nc2nccc(Nc3cnc4c(c3)CC(C)CC4)n2)ccc1OCCCN1CCCCC1 (centres unmarked) [Compound 62, 2-[3-methoxy-4-(3-piperidinopropoxy)phenylamino]-4-(6-methyl-5,6,7,8-tetrahydro-3-quinolylamino)pyrimidine] | ≤ 500
22 | COc1cc(Nc2nccc(Nc3cnc4ccc(Br)cc4c3)n2)ccc1O[C@H]1C[C@H](N(C)C)C1 [Compound 199, 4-(6-bromo-3-quinolylamino)-2-{3-methoxy-4-[(1r,3r)-3-(dimethylamino)cyclobutoxy]phenylamino}pyrimidine] | ≤ 500
23 | COc1cc(Nc2nccc(Nc3cnc4ccc(C5CC5)cc4c3)n2)ccc1O[C@H]1C[C@H](N(C)C)C1 [Compound 325, 4-(6-cyclopropyl-3-quinolylamino)-2-{3-methoxy-4-[(1r,3r)-3-(dimethylamino)cyclobutoxy]phenylamino}pyrimidine] | ≤ 500
24 | COc1cc(Nc2nccc(Nc3cnc4cccc(Cl)c4c3)n2)ccc1OCCCN1CCCCC1 [Compound 422, 4-(5-chloro-3-quinolylamino)-2-[3-methoxy-4-(3-piperidinopropoxy)phenylamino]pyrimidine] | ≤ 500
25 | COc1cc(Nc2nccc(Nc3cc4cccc(F)c4[nH]c3=O)n2)cnc1N1CCN(C)C(C(F)(F)F)C1 (centres unmarked) [Compound 174, 8-fluoro-3-((2-((5-methoxy-6-(4-methyl-3-(trifluoromethyl)piperazin-1-yl)pyridin-3-yl)amino)pyrimidin-4-yl)amino)quinolin-2(1H)-one] | 500 to 2000
26 | COc1cc(Nc2nccc(Nc3cnc4c(=O)n(C)ncc4c3)n2)ccc1O[C@H]1C[C@@H](N(C)C)C1 [Compound 304, 3-(2-{3-methoxy-4-[(1s,3s)-3-(dimethylamino)cyclobutoxy]phenylamino}-4-pyrimidinylamino)-7-methyl-1,6,7-triaza-8(7H)-naphthalenone] | > 10000
27 | COc1cc(Nc2nccc(Nc3cnc4cc(O)ccc4c3)n2)ccc1O[C@H]1C[C@H](N(C)C)C1 [Compound 326, 3-(2-{3-methoxy-4-[(1r,3r)-3-(dimethylamino)cyclobutoxy]phenylamino}-4-pyrimidinylamino)-7-quinolinol] | ≤ 500
28 | COc1cc(Nc2nccc(Nc3cnc4c(c3)CC(O)CC4)n2)ccc1O[C@H]1C[C@@H](N(C)C)C1 (some centres unmarked) [Compound 82, 3-(2-{3-methoxy-4-[(1s,3s)-3-(dimethylamino)cyclobutoxy]phenylamino}-4-pyrimidinylamino)-5,6,7,8-tetrahydro-6-quinolinol] | 500 to 2000
29 | CN(C)[C@H]1C[C@H](Oc2ccc(Nc3nccc(Nc4cc5ccccc5[nH]c4=O)n3)cc2)C1 [Compound 248, 3-(2-{p-[(1r,3r)-3-(dimethylamino)cyclobutoxy]phenylamino}-4-pyrimidinyl-amino)-2(1H)-quinolinone] | ≤ 500
30 | COc1cc(Nc2nccc(Nc3cnc4c(c3)C3CCC4C3)n2)ccc1O[C@H]1C[C@H](N(C)C)C1 (some centres unmarked) [Compound 76, 4-(3-azatricyclo[6.2.1.02,7]undeca-2,4,6-trien-5-ylamino)-2-{3-methoxy-4-[(1r,3r)-3-(dimethylamino)cyclobutoxy]phenylamino}pyrimidine] | ≤ 500
31 | COc1cc(Nc2nccc(Nc3cnc4c(F)c(F)ccc4c3)n2)ccc1O[C@H]1C[C@@H](N(C)C)C1 [Compound 298, 4-(7,8-difluoro-3-quinolylamino)-2-{3-methoxy-4-[(1s,3s)-3-(dimethylamino)cyclobutoxy]phenylamino}pyrimidine] | ≤ 500
32 | COc1cc(Nc2nccc(Nc3cnc4ccc(Br)cc4c3)n2)ccc1OCCCN1CCCCC1 [Compound 421, 4-(6-bromo-3-quinolylamino)-2-[3-methoxy-4-(3-piperidinopropoxy)phenylamino]pyrimidine] | ≤ 500

Reference: patent US20250171431A1, “HETEROCYCLIC INHIBITORS OF IGF-1R FOR TREATMENT OF DISEASE” (HORIZON THERAPEUTICS IRELAND DAC, priority 2023, published 2025)
